According to patent US5780253A, “Screening method for detection of herbicides” (Sandoz Ltd., priority 1996, dated 1998):
“Also recorded” adds a separate entry of the source. Like-named read-outs stand apart in the source and are kept apart here.

Columns and labels:
Arabidopsis [1] = test: Arabidopsis reversal (reversion) assay: growth with probe compound in the presence of antidote compounds; format: in vivo; settings: for Inhibition of AMP biosynthesis (conversion of IMP to AMP), in words: concluded from Arabidopsis antidote reversal; for Growth (in words): without antidote; for Effect of the antidote alone on growth of the plant (in words): control columns 1 through 3, no probe compound
Description: Test conditions suitable for growth are those conditions wherein the control plant material used in the screen, described herein, will grow normally. These conditions are easily determined by one skilled in the art. Reversal conditions are those conditions in which inhibition which occurs at the lethal concentration of a probe compound is reversed as determined by exposure of the plant material to combinations of the probe compound and to one or more antidote compounds. […] An antidote compound is a compound that causes reversal of inhibition of a probe compound. As an example, with respect to inhibitors of ADSS, antidotes would include AMP, ADP, adenosine and adenine.
The solutions are filter sterilized prior to addition. FIG. 4 represents a typical set up in a reversion assay for discovering inhibitors of AMP biosynthesis.
The left side (columns 1-3) of the 24-well microtiter plate is designed for controls, and the right side (columns 4-6) are designated for one probe compound. […] Rows B, C and D are supplemented with three doses of an antidote for the control and probe compound. […] The three doses are 50, 100 and 150 μl respectively of the stock solutions.
Forty ml of Arabidopsis growth media as described in Example 1 is sterilized and allowed to cool to about 45° C. A probe compound (at 1.5×lethal concentration) is added to columns 4 through 6 (right half of the plate). Media is distributed at 1.0 ml per well to all wells. Sterile seeds are added to each well as described above. As in Example 1, the plate is incubated and growth is scored.

Arabidopsis [2] = test: Arabidopsis bioassay, determination of the lethal concentration (LC 90) of the probe compound
IMP to GMP conversion = settings: known; cited from earlier work
[3] = antidote Adenosine + Guanosine 0.5-5.0 mM
[4] = antidote Cytidine + Uridine 0.5-5.0 mM
[5] = antidote Hypoxanthine 0.5-5.0 mM
[6] = read-out: lethal concentration (LC 90), Arabidopsis seeds, 28° C., 7 days, approximately, 90% or greater growth inhibition

Molecule	Growth, % of Control (Arabidopsis [1]; antidote ADP 0.5-5.0 mM)	Growth, % of Control (Arabidopsis [1]; antidote AMP 0.5-5.0 mM)	Growth, % of Control (Arabidopsis [1]; antidote ATP 0.5-5.0 mM)	Growth, % of Control (Arabidopsis [1]; antidote Adenine 0.5-5.0 mM)	Growth, % of Control (Arabidopsis [1]; antidote Adenosine 0.5-5.0 mM)	Growth, % of Control (Arabidopsis [1]; [3])	Growth, % of Control (Arabidopsis [1]; [4])	Growth, % of Control (Arabidopsis [1]; antidote Guanine 0.5-5.0 mM)	Growth, % of Control (Arabidopsis [1]; antidote Guanosine 0.5-5.0 mM)	Growth, % of Control (Arabidopsis [1]; [5])	Growth, % of Control (Arabidopsis [1]; antidote IMP 0.5-5.0 mM)	Inhibition of AMP biosynthesis (conversion of IMP to AMP), in words (Arabidopsis [1])	Growth (in words) (Arabidopsis [1])	further results
O=C1NC(=O)C2(N1)O[C@H](CO)[C@@H](O)[C@H]2O (single isomer, unassigned) [hydantocidin, reference compound]	100 % of Control	100 % of Control	40 % of Control	60 % of Control	80-100 % of Control	80 % of Control	0 % of Control	0 % of Control	0 % of Control	0 % of Control	5 % of Control	blocking AMP biosynthesis; also recorded: inhibition of AMP biosynthesis	Growth is not observed	Growth / reversal of growth inhibition (in words) (Arabidopsis [1]; antidote IMP): did not reverse growth inhibition; Growth / reversal of growth inhibition (in words) (Arabidopsis [1]; antidotes adenosine and AMP, rows B and C, wells 4 through 6): Complete growth; IC90 (Arabidopsis [2]; [6]): ~2 µM
Nc1ncnc2c1ncn2[C@@H]1O[C@H](COP(=O)(O)O)[C@@H](O)[C@H]1O [AMP, adenosine monophosphate, reference compound]														Effect of the antidote alone on growth of the plant (in words) (Arabidopsis [1]): no effect on the growth of the plant
COc1c(C)c2c(c(O)c1C/C=C(\C)CCC(=O)O)C(=O)OC2 [MPA, Mycophenolic Acid]													Growth is not observed	Inhibition of IMP to GMP conversion, in words (IMP to GMP conversion): known inhibitor of IMP to GMP conversion; IC90 (Arabidopsis [2]; Arabidopsis thaliana, 168 h, read-out: lethal concentration): 12.5 µg/mL
CC(=O)N1C(=O)NC2(OC(COP(=O)(O)O)C(O)C2O)C1=O (stereo not shown) [N-acetylphosphohydantocidin, 5'-Phospho-N-acetyl-hydantocidin]	100 % of Control	100 % of Control	40 % of Control	65 % of Control	80-100 % of Control	80 % of Control	0 % of Control	0 % of Control	0 % of Control	0 % of Control	5 % of Control		Growth is not observed	Growth, % of Control (Arabidopsis [1]; No antidote, 0 mM, probe compound at 1.5×lethal concentration): 0 % of Control; IC90 (Arabidopsis [2]; [6]): ~8 µM
NC(=O)c1ncn([C@@H]2O[C@H](CO)[C@@H](O)[C@H]2O)n1 [TCR, 1,2,4-triazole-3-carboxamide-1-ribose, reference compound]													Growth is not observed	
Nc1ncnc2c1ncn2[C@@H]1O[C@H](CO)[C@@H](O)[C@H]1O [adenosine, reference compound]														Effect of the antidote alone on growth of the plant (in words) (Arabidopsis [1]): no effect on the growth of the plant
O=CN(O)CC(=O)O [hadacidin, reference compound]												blocking AMP biosynthesis	Growth is not observed	IC90 (Arabidopsis [2]; Arabidopsis thaliana, 168 h, read-out: lethal concentration (LC 90)): ~50 µM
N-acetyl hydantocidin	100 % of Control	100 % of Control	40 % of Control	60 % of Control	80-100 % of Control	80 % of Control	0 % of Control	0 % of Control	0 % of Control	0 % of Control	5 % of Control	blocking AMP biosynthesis	Growth is not observed	
